Results published in ChEMBL document CHEMBL4414648, “Novel Benzohydroxamate-Based Potent and Selective Histone Deacetylase 6 (HDAC6) Inhibitors Bearing a Pentaheterocyclic Scaffold: Design, Synthesis, and Biological Evaluation” (J Med Chem, 2019).
pIC50: −log10 of the molar value.

Tests used:
[1] = molecular target: Histone deacetylase 3/Nuclear receptor corepressor 2 (HDAC3/NCoR2) (Homo sapiens, UniProt O15379); assay: Inhibition of C-terminal His-tagged human HDAC3 (1 to 428 residues)/N-terminal GST tagged human NCOR2 (395 to 489) expressed in baculovirus infected sf9 insect cells pretreated with compound followed by Fluor de Lys deacetylase substrate addition by fluorescence method
[2] = molecular target: T1, Protein deacetylase HDAC6 (Homo sapiens, UniProt Q9UBN7); assay: biochemical
T1 sequence (Q9UBN7 whole entry): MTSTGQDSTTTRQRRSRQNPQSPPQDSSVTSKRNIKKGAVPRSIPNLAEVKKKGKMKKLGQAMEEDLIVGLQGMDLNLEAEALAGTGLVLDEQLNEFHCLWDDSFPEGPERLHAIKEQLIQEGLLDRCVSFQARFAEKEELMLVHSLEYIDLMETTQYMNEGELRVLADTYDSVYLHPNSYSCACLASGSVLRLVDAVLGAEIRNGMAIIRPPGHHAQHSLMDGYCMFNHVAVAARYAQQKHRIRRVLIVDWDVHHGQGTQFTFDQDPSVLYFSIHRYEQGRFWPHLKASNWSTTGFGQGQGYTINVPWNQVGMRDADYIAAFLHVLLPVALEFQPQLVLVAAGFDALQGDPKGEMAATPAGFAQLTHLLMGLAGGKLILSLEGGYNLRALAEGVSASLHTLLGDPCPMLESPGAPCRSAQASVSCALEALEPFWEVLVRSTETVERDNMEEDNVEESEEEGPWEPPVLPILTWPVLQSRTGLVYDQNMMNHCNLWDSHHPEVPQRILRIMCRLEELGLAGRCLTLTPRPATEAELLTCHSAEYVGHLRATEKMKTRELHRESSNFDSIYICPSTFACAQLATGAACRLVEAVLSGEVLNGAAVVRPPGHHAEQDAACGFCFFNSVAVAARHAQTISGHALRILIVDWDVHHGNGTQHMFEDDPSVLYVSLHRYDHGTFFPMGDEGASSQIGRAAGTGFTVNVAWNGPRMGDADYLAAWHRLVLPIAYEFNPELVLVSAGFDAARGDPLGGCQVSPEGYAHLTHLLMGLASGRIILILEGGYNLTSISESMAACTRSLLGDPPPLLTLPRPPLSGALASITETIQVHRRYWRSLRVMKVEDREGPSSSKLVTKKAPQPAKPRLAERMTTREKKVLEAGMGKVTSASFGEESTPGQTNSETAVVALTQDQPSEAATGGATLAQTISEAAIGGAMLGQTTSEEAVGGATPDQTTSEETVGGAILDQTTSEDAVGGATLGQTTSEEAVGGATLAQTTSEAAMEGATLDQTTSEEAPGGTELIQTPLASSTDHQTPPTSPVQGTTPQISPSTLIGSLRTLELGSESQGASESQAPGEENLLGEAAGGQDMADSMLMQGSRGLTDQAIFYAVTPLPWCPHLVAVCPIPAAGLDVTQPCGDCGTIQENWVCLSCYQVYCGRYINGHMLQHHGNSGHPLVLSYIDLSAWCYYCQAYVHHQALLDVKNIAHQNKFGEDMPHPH

Sequence of Histone deacetylase 3/Nuclear receptor corepressor 2 (HDAC3/NCoR2) (O15379 whole entry, the tested form may be a part): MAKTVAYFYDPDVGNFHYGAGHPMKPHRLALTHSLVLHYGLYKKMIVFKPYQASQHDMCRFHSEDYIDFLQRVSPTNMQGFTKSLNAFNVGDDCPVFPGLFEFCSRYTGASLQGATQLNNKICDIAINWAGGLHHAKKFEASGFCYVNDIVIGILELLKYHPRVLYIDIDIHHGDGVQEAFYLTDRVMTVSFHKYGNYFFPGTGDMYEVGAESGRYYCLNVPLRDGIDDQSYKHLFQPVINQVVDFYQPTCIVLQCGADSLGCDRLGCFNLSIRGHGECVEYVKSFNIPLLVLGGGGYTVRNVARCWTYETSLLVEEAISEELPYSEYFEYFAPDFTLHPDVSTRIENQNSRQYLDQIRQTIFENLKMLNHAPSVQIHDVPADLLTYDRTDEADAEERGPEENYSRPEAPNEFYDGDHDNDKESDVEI
Sequence of Histone deacetylase 3/Nuclear receptor corepressor 2 (HDAC3/NCoR2) (Q9Y618 whole entry, further chain, the tested form may be a part): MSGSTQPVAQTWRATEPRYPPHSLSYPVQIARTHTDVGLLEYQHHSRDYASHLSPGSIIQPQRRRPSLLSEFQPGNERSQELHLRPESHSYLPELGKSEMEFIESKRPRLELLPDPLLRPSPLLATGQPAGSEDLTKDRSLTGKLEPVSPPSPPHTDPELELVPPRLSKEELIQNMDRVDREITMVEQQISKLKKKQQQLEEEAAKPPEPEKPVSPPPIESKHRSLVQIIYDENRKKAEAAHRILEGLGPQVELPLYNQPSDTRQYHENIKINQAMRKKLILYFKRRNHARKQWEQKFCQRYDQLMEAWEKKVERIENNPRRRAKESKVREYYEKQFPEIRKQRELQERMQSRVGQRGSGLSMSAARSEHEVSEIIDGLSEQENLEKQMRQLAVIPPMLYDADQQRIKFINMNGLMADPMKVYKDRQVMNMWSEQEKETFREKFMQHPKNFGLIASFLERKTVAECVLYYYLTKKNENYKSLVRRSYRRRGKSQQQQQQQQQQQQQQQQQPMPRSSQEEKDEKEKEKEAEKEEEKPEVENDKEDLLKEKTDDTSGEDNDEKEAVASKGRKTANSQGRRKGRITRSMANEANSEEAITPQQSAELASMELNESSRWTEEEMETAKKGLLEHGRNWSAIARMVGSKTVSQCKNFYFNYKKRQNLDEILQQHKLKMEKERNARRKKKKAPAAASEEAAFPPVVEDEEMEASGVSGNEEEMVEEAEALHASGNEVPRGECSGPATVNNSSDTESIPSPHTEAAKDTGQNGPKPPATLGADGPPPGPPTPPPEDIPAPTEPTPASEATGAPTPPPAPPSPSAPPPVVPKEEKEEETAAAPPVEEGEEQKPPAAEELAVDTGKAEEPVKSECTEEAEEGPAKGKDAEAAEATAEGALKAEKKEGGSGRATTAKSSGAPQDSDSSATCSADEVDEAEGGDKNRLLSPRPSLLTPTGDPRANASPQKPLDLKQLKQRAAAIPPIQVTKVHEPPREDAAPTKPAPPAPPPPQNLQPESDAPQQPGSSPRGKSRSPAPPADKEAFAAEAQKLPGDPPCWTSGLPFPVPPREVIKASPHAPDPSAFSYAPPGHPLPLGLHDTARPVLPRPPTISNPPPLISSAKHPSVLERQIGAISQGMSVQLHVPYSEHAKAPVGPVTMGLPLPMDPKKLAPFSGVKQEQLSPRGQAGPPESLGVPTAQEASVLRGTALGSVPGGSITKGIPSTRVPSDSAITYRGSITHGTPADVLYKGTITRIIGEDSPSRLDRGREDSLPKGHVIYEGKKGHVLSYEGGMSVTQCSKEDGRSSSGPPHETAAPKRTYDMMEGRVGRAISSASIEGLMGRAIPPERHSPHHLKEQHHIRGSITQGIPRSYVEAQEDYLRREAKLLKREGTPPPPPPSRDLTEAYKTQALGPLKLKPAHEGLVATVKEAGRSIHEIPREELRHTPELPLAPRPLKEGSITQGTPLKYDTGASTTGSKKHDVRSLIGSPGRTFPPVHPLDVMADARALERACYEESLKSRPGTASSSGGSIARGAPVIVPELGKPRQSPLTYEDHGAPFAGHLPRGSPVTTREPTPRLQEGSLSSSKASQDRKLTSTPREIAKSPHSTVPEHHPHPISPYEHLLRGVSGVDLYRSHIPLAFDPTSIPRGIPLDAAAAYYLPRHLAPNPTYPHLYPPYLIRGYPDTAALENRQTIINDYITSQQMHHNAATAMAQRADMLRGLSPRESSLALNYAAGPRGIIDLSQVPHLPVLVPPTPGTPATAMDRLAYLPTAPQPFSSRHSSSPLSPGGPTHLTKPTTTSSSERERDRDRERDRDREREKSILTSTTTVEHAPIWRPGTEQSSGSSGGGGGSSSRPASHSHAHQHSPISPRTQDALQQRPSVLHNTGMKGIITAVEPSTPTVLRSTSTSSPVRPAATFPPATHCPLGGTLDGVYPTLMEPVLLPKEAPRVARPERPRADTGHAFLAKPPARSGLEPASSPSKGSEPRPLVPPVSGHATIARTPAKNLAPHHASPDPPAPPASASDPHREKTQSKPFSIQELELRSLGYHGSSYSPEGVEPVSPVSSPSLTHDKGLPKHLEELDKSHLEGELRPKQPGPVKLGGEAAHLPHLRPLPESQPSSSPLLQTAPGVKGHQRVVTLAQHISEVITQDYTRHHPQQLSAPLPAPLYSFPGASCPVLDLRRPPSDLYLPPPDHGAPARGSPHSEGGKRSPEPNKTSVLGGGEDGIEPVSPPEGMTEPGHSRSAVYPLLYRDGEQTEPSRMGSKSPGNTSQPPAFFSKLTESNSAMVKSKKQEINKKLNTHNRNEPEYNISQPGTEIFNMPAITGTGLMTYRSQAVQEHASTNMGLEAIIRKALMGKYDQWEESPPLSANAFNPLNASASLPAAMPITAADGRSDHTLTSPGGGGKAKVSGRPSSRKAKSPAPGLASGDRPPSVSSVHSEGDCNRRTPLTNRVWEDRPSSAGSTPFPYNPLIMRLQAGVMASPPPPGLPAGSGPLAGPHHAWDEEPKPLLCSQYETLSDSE

Row | pIC50 [1] | pIC50 [2] | Compound
1 | 4.74 | 5.86 | Nc1ccc(C(=O)NO)cc1
2 | 5.54 | 6.70 | O=C(NO)c1ccc(Cc2nnc[nH]2)cc1
